# Where two headings read alike, the source gives them in different places.
# Experiments:
# [1] = Solubility in various solvents at 25° C.; format: physicochemical; settings: organic solvent or mixture
# Protocol: The solubility of the compound 1Aa at 25° C. was compared to the solubility of compound 2Aa in various solvents.
# [2] = background statement, no solvent given; cited from earlier work
# [3] = CH3CN, read-out: solubility in CH3CN
# [4] = CHCl3, read-out: solubility in CHCl3
# [5] = DMF, read-out: solubility in DMF
"solubility [1, 3]","solubility [1, 4]","solubility [1, 5]",Structure (SMILES),solubility (in words) [2]
5000 µg/mL,5000 µg/mL,8000 µg/mL,CCC(C)(C)c1ccc(-[s+]2c3cc4ccccc4cc3c3sc4cc5ccccc5cc4c32)cc1.F[B-](F)(F)F (stereo not shown) [Compound 1Aa],–
< 1000 µg/mL,< 1000 µg/mL,< 1000 µg/mL,"c1ccc2cc3c(cc2c1)sc1c2cc4ccccc4cc2sc31 [Compound 2Aa, dinaphtho[2,3-b:2′,3′-f]thieno[3,2-b]thiophene]",low solubility

# From patent US11152578B2, “Sulfonium salts of DNTT and related compounds as soluble photocleavable precursors for organic semiconductors for use in organic field-effect transistors” (Clap Co., Ltd., priority 2017, dated 2021)
